Data taken from patent US12161650B2, “Pharmaceutical compositions comprising a ryanodine receptor modulator and uses thereof” (priority 2021, dated 2024).
Where two headings read alike, the source gives them in different places.

Columns and labels:
Type in all cases: in vivo, human (healthy male volunteers)
[1] = Phase 1 clinical trial, Part I single ascending doses, plasma pharmacokinetics; conditions: for Tmax / AUC(0-t) / Cmax / AUC / half-life: male, human, plasma; for AUC(0-t) / Cmax: Day 1, geom. mean; for AUC: Day 1, zero to infinity; for AUC / half-life: geom. mean; for half-life: read-out: t1/2, z (converted)
Description: (§1) A Phase 1, randomized, double-blind, placebo-controlled clinical trial was performed to assess the safety and pharmacokinetics (PK) of Compound I after single, escalating, and repeated oral doses in health male volunteers.
(§2) 4-[(7-methoxy-2,3-dihydro-1,4-benzothiazepin-4(5H)yl)methyl]benzoic acid hemi-fumarate (Compound I) was administered in a gastro-resistant tablet according to Example 1. The formulation contained 20 mg, 40 mg, or 200 mg Compound I (based on the mass of 4-[(7-methoxy-2,3-dihydro-1,4-benzothiazepin-4(5H)yl)methyl]benzoic acid). Placebo tablet according to Example 4 was used as comparator.
[…] Forty subjects completed part I: 30 active (6 per cohort) and 10 placebo.
In Part I, blood samples were collected from each participant as follows: at pre-dose, then 0.25, 0.5, 1, 1.5, 2, 3, 4, 5, 6, 8, 10, 12, 16, 24, 36, 48, 60, 72, and 96 hours after dosing.
(§3) The area under the plasma concentration-time curve was calculated using a combined linear and logarithmic trapezoidal rule. The interpolation was linear in the constant and ascending parts of the plasma concentration-time profiles. The interpolation was logarithmic in the descending parts.
For Part I, to assess the dose effect on the PK of Compound I, the mean AUClast, and Cmax for each dose were calculated and were plotted by dose.
(§4) For each group and treatment, descriptive statistics (N, arithmetic mean, standard deviation, minimum, median, maximum, coefficient of variation, geometric mean, and geometric CV, as appropriate) were calculated for the concentrations and pharmacokinetic parameters of Compound I.
(§5) Plasma and muscle samples were analyzed by LC-MS/MS method.

[2] = Phase 1 clinical trial, Part II multiple ascending doses over 14 days, plasma pharmacokinetics; conditions: for Cmax / Tmax / AUC(0-t) / AUC / half-life: male, human, plasma; for AUC(0-t): read-out: AUC0-24
Description: as §1, §2
In Part II, participants from groups I, J, K, and L received repeated doses of 20 mg, 60 mg, 120 mg, or 240 mg Compound I, respectively, or corresponding placebo once daily over a period of 14 days. Forty-one subjects completed Part II: 7/7/8/7 for cohorts I, J, K, L, and twelve placebo.
In Part II, blood samples were collected from each participant as follows: Day 1: 12 samples from the pre-morning dose up to 16 h (pre-dose, 0.25, 0.5, 1, 1.5, 2, 3, 4, 6, 8, 12, and 16 h), Days 2-13: 12 samples at pre-doses (i.e., morning dose); Day 14: 16 samples from the pre-morning dose up to 96 (D14 pre-dose, 0.25, 0.5, 1, 1.5, 2, 3, 4, 6, 8, 12, and 16 h and D15-18: 1 sample before theoretical morning dosing.
as §3
For Part II, the same approach was used on AUCτ (Day 14) respectively AUC24 (Day 1), and Cmax.
as §4, §5

[3] = Phase 1 clinical trial, Part II, muscle biopsy: concentration in quadriceps muscle; conditions: for Kp (total muscle concentration divided by plasma concentration) / Kp: muscle Day 13 / plasma Day 14 at 3 hours post dose, geom. mean (geom. % CV); for Kp: quadriceps muscle / plasma, read-out: Kpu (unbound muscle concentration divided by plasma concentration)
Description: For Study part II (for all groups), Concentrations of Compound I were determined in muscle by performing muscle biopsy on quadriceps muscle on day 13, at least 3 hours after morning dose. Plasma and muscle samples were analyzed by LC-MS/MS method. Muscle biopsy was performed to assess the concentration of Compound I in quadriceps muscle. The biopsy was performed on Day 13 at 3 hours post dose at least. Table 9 summarizes the ratios of unbound respective total concentration at Day 13 at 3 hours post dose divided by the plasma concentration on Day 14 at 3 hours post dose.

[4] = Phase 1 clinical trial, safety of single and repeated oral doses
Description: as §1
(§6) The primary objective was to assess the safety of escalating single oral doses of Compound I compared with placebo in healthy male volunteers. The secondary objective was to measure plasma pharmacokinetic (PK) parameters of Compound I.
as §6, with “repeated” for “single”, “I over 14 days” for “I”, “I and to assess the concentration of Compound I in quadriceps muscle.” for “I.”

[5] = geometric means across dose groups 20-240 mg, 14-day repeated administration

Tmax ([1]; single oral administration at 20 to 400 mg, across doses, read-out: median Tmax): 3 to 4.5 h
AUC(0-t) ([1]; single oral dose 40 mg (Treatment A, n = 6)): 68.7 µg·h/mL
Cmax ([1]; single oral dose 40 mg): 3940 ng/mL
Tmax ([1]; single oral dose 40 mg, Day 1, median, read-out: tmax): 3 h
AUC ([1]; single oral dose 40 mg): 71.7 µg·h/mL
half-life ([1]; single oral dose 40 mg): 20.9 h
AUC(0-t) ([1]; single oral dose 80 mg (Treatment B, n = 6)): 153 µg·h/mL
Cmax ([1]; single oral dose 80 mg): 6880 ng/mL
Tmax ([1]; single oral dose 80 mg, Day 1, median, read-out: tmax): 3 h
AUC ([1]; single oral dose 80 mg): 163 µg·h/mL
half-life ([1]; single oral dose 80 mg): 22.7 h
AUC(0-t) ([1]; single oral dose 160 mg (Treatment C, n = 6)): 304 µg·h/mL
Cmax ([1]; single oral dose 160 mg): 15500 ng/mL
Tmax ([1]; single oral dose 160 mg, Day 1, median, read-out: tmax): 3 h
AUC ([1]; single oral dose 160 mg): 312 µg·h/mL
half-life ([1]; single oral dose 160 mg): 17.5 h
AUC(0-t) ([1]; single oral dose 240 mg (Treatment D, n = 6)): 451 µg·h/mL
Cmax ([1]; single oral dose 240 mg): 24500 ng/mL
Tmax ([1]; single oral dose 240 mg, Day 1, median, read-out: tmax): 4.5 h
AUC ([1]; single oral dose 240 mg): 464 µg·h/mL
half-life ([1]; single oral dose 240 mg): 17.7 h
AUC(0-t) ([1]; single oral dose 400 mg (Treatment E, n = 6)): 656 µg·h/mL
Cmax ([1]; single oral dose 400 mg): 35100 ng/mL
Tmax ([1]; single oral dose 400 mg, Day 1, median, read-out: tmax): 3.5 h
AUC ([1]; single oral dose 400 mg): 708 µg·h/mL
half-life ([1]; single oral dose 400 mg): 18.7 h
Tlag ([1]; single oral administration at 20 to 400 mg): less than 2 hours
Absorption ([1]; single oral administration of 20, 40, 80, 160, 240, and 400 mg, after a lag time): rapid absorption was observed
Dose proportionality with regard to AUClast and Cmax ([1]; single oral doses, graphical inspections): dose proportionality
Day at which steady-state was attained ([2]; 240 mg cohort): 5 days
Day at which steady-state was attained ([2]; 20, 60, and 120 mg cohorts): 4 days
Time to steady-state ([2]; daily treatment, across cohorts): 3 to 7 days
Accumulation ratio based on AUC [2, 5]: 1.4-1.8
Accumulation ratio based on Cmax [2, 5]: 1.4-1.8
Cmax ([2]; oral, 20 mg, 20 mg once daily, Day 1, geom. mean (geom. % CV), n = 8): 2200 ng/mL
Tmax ([2]; oral, 20 mg, 20 mg once daily, Day 1, median (range), n = 8, read-out: tmax): 2.52 h
Cmax ([2]; oral, 20 mg, 20 mg once daily, Day 14, geom. mean): 3110 ng/mL
Tmax ([2]; oral, 20 mg, 20 mg once daily, Day 14, median, read-out: tmax): 3 h
Cmax ([2]; oral, 60 mg, 60 mg once daily, Day 1, geom. mean): 6090 ng/mL
Tmax ([2]; oral, 60 mg, 60 mg once daily, Day 1, median, read-out: tmax): 3 h
Cmax ([2]; oral, 60 mg, 60 mg once daily, Day 14, geom. mean): 8840 ng/mL
Tmax ([2]; oral, 60 mg, 60 mg once daily, Day 14, median, read-out: tmax): 1.45 h
Cmax ([2]; oral, 120 mg, 120 mg once daily, Day 1, geom. mean): 11500 ng/mL
Tmax ([2]; oral, 120 mg, 120 mg once daily, Day 1, median, read-out: tmax): 3 h
Cmax ([2]; oral, 120 mg, 120 mg once daily, Day 14, geom. mean): 16300 ng/mL
Tmax ([2]; oral, 120 mg, 120 mg once daily, Day 14, median, read-out: tmax): 3.5 h
Cmax ([2]; oral, 240 mg, 240 mg once daily, Day 1, geom. mean): 23900 ng/mL
Tmax ([2]; oral, 240 mg, 240 mg once daily, Day 1, median, read-out: tmax): 3 h
Cmax ([2]; oral, 240 mg, 240 mg once daily, Day 14, geom. mean): 34900 ng/mL
Tmax ([2]; oral, 240 mg, 240 mg once daily, Day 14, median, read-out: tmax): 3 h
AUC(0-t) ([2]; oral, 20 mg once daily (Treatment I), Day 1, geom. mean, n = 7): 24.3 µg·h/mL
AUC ([2]; oral, 20 mg once daily, Day 14, geom. mean): 40.1 µg·h/mL
half-life ([2]; oral, 20 mg once daily, Day 14, geom. mean, read-out: t1/2, z (converted)): 19.3 h
AUC(0-t) ([2]; oral, 60 mg once daily (Treatment J, n = 7), Day 1, geom. mean): 69.2 µg·h/mL
AUC ([2]; oral, 60 mg once daily, Day 14, geom. mean): 115 µg·h/mL
half-life ([2]; oral, 60 mg once daily, Day 14, geom. mean, read-out: t1/2, z (converted)): 19.7 h
AUC(0-t) ([2]; oral, 120 mg once daily (Treatment K, n = 8), Day 1, geom. mean): 138 µg·h/mL
AUC ([2]; oral, 120 mg once daily, Day 14, geom. mean): 221 µg·h/mL
half-life ([2]; oral, 120 mg once daily, Day 14, geom. mean, read-out: t1/2, z (converted)): 19.3 h
AUC(0-t) ([2]; oral, 240 mg once daily (Treatment L, n = 7), Day 1, geom. mean): 270 µg·h/mL
AUC ([2]; oral, 240 mg once daily, Day 14, geom. mean): 465 µg·h/mL
half-life ([2]; oral, 240 mg once daily, Day 14, geom. mean, read-out: t1/2, z (converted)): 19.8 h
half-life ([2]; oral, based on the results of the single and repeat dose studies, read-out: Mean apparent terminal half-life (converted)): ~20 h
Tmax ([2]; po, after 14-days of repeated once daily oral administrations, across cohorts, read-out: median Tmax): 3 to 4 h
Dose proportionality regarding AUCτ resp. AUC0-24 and Cmax ([2]; repeated doses, graphical inspections): dose proportionality
Kp (total muscle concentration divided by plasma concentration) ([3]; 20 mg once daily): 0.0808 (65.3) (ng/g)/(ng/ml)
Kp (total muscle concentration divided by plasma concentration) ([3]; 60 mg once daily): 0.0640 (22.6) (ng/g)/(ng/ml)
Kp (total muscle concentration divided by plasma concentration) ([3]; 120 mg once daily): 0.0636 (49.9) (ng/g)/(ng/ml)
Kp (total muscle concentration divided by plasma concentration) ([3]; 240 mg once daily): 0.0440 (30.0) (ng/g)/(ng/ml)
Dose proportionality of median unbound and total concentrations in quadriceps muscle ([3]; 20-240 mg once daily): appeared dose proportional
Kp, range of geometric mean ratios across doses ([3]; dose range 20-240 mg): 0.04-0.08 (ng/g)/(ng/mL)
Kp at 3 h ([3]; male, human, quadriceps muscle (unbound) / plasma, oral, dose range 20-240 mg, read-out: Kpu, range of geometric mean ratios across doses): 0.0081 to 0.0106
Kp ([3]; male, human, oral, 20 mg once daily): 0.0106
Kp ([3]; male, human, oral, 60 mg once daily): 0.01
Kp ([3]; male, human, oral, 120 mg once daily): 0.0081
Kp ([3]; male, human, oral, 240 mg once daily): 0.0081
Compound: COc1ccc2c(c1)CN(Cc1ccc(C(=O)O)cc1)CCS2.O=C(O)/C=C/C(=O)O [Compound I, 4-[(7-methoxy-2,3-dihydro-1,4-benzothiazepin-4(5H)yl)methyl]benzoic acid hemifumarate]
Non-linearity with the dose ([1]; single oral doses): No evidence of non-linearity with the dose was observed
Non-linearity with the time and dose ([2]; repeated oral administrations at 20, 60, 120, and 240 mg/d): No evidence of non-linearity with the time and dose was observed
Tolerability ([4]; at the doses and dose regimens tested): well tolerated
Serious adverse events ([4]; single doses up to 400 mg and repeated doses up to 240 mg/d for 14 days): No serious adverse events were reported
